The source of these data is PubChem BioAssay (NCI).

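Assay format: 96-well plates, 48-hour exposure. The concentration for 50% growth inhibition is given as GI50. TGI marks complete inhibition of growth.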 A value given as a limit tells only on which side of the number the result lay.

Assay in all cases: NCI anticancer screen, dose series, 48 h
In assay [1] the test system is ACHN renal.
Assay [2] deals with KM12 colon.
The subject of assay [3] is LOX IMVI melanoma.
The subject of assay [4] is MDA-MB-435.
Assay [5] relates to SF-268 CNS.
In assay [6] the test system is SK-MEL-28 melanoma.
Assay [7] concerns SK-MEL-5 melanoma.
Assay [8] deals with UACC-62 melanoma.
Assay [9] deals with UO-31 renal.
The subject of assay [10] is CCRF-CEM leukemia.

In the case of `O=S(=O)(NC1=NCCN1C(=S)SN1CCn2c1nsc2=S)c1ccccc1Cl`, the GI50 was 24.5 µM in assay [1]; 17 µM in assay [2]; 16.5 µM in assay [3]; 8.67 µM in assay [4]; 13.3 µM in assay [5]; 16.1 µM in assay [6]. In addition, the GI50 in assay [7] is 15.8 µM; in assay [8], 19.3 µM; in [9] it was 26.1 µM. For the same compound, the TGI is over 100 µM in [1]; 42.8 µM in assay [2]; 62.9 µM in [3]; 29.2 µM in assay [4]; 87.6 µM in assay [5]; 65.7 µM in assay [6]. In addition, the results for the TGI in [7], in assay [8] and in [9] were 31.1 µM, 44.1 µM and over 100 µM, respectively.

As for `CNC1=C(C(=O)OC)SC(c2ccccc2)(c2ccccc2)SC1`, the GI50 in [2] is 6.92 µM; in [3] it was 21.2 µM; in assay [4], 3.15 µM; in assay [5], 18.9 µM; in assay [6], 26.6 µM; in [7], 19.5 µM. For the same compound, the GI50 in assay [8] was 9.51 µM; in assay [9], over 100 µM. Moreover, the TGI in [2] was over 100 µM; in assay [3], over 100 µM; in assay [4], 10.9 µM; in assay [5], over 100 µM; in assay [6] it was over 100 µM; in assay [7], over 100 µM. The TGI in assay [8] and in assay [9] was over 100 µM throughout.

For the compound `Nc1cc(S(N)(=O)=O)ccc1SSc1ccc(S(N)(=O)=O)cc1N`, the TGI in assay [1], in assay [2], in [3], in assay [4], in [5] and in assay [6] was over 100 µM each time. The TGI in assay [7], in assay [8] and in [9] was over 100 µM each time.

As for `CN(C)CCSCCO`, the TGI in assay [1], in [2], in assay [3], in assay [4], in assay [5] and in assay [6] was over 100 µM throughout. The TGI in [7], in [8] and in assay [9] was over 100 µM throughout.

As to `CSc1ccc(SC2c3ccc(C)cc3Oc3nc(N)c(C#N)c(N)c32)cc1` (configuration not stated), the GI50 in [1] was 1.61 µM; in assay [2], 1.96 µM; in [3], 1.51 µM; in assay [4], 1.77 µM; in assay [5], 1.7 µM; in assay [6] it was 1.83 µM. The GI50 was 1.76 µM in assay [7], 1.61 µM in assay [8] and 1.2 µM in [9]. Further, the TGI worked out at 2.96 µM in assay [1]; 3.65 µM in assay [2]; 2.92 µM in assay [3]; 3.27 µM in [4]; 3.33 µM in [5]; 3.29 µM in assay [6]. Also, the figures for the TGI in assay [7], in assay [8] and in [9] were 3.15 µM, 2.97 µM and 2.43 µM, respectively.

For the compound `Fc1ccc2c(c1)C1=C(CO2)C(c2ccc(Cl)cc2)NC(=S)N1` (configuration not stated), the GI50 in [1] is 37.4 µM; in [2], 17.8 µM; in assay [3] it was 23 µM; in assay [4], 21.6 µM; in [7], 19.2 µM; in [8], 18.4 µM. For the same compound, the GI50 in assay [9] was 27.8 µM. Moreover, the TGI was over 100 µM in [1]; 38.9 µM in assay [2]; 61.7 µM in assay [3]; 51.1 µM in assay [4]; 49.5 µM in [7]; 63.7 µM in assay [8]. In assay [9], this compound registered a TGI of 84 µM.

With `N#C/C(=C\c1c(-c2ccccc2)[nH]c2ccccc12)C(=O)c1ccccc1`, the GI50 in [1] was 7.16 µM; in assay [10], 7.27 µM; in assay [2], 1.96 µM; in assay [3] it was 7.4 µM; in assay [4] it was 0.37 µM; in [5], 5.73 µM. Moreover, the GI50 in assay [6] is 12 µM; in assay [8], 3.6 µM; in [9], 30.5 µM. In addition, the TGI is over 100 µM in assay [1]; over 100 µM in assay [10]; 19.4 µM in assay [2]; over 100 µM in assay [3]; 4.14 µM in assay [4]; 58.9 µM in [5]. Moreover, the TGI in assay [6], in assay [8] and in assay [9] was over 100 µM in each case.

Regarding `CC(=O)OC(C)c1cc2c(s1)C(=O)c1c(C(C)OC(C)=O)csc1C2=O` (configuration not stated), the TGI in [1] turned out to be 2.82 µM; in assay [10] it was 4.44 µM; in [2] it was 3.41 µM; in assay [4], 0.34 µM; in assay [5] it was 13.2 µM; in assay [6] it was 3.27 µM. Moreover, the TGI is 1.83 µM in assay [7], 2.51 µM in assay [8] and 2.9 µM in assay [9]. In addition, the GI50 in assay [4] was 0.185 µM; in [6], 1.65 µM; in assay [7] it was 0.631 µM; in assay [8], 1.09 µM.

For `Cn1ccnc1CCc1ccc(Cl)c(Cl)c1`, the TGI in assay [1], in assay [10], in assay [2], in [3], in assay [5] and in assay [6] was over 100 µM throughout. Besides, the TGI in [7], in [8] and in assay [9] was over 100 µM each time.

For `CC(C)CC12CC3CCC(CNC1=O)C32C` (configuration not stated), the TGI in [1], in [10], in assay [2], in assay [3], in [5] and in assay [6] was over 100 µM in each case. The TGI in assay [7], in assay [8] and in assay [9] was over 100 µM in each case.

On to `CCOC(=O)C1=C(Nc2ccc(Br)cc2)OC/C1=N\NC(=O)c1ccccc1O`, for which the TGI was over 100 µM in assay [1]; 34.3 µM in assay [10]; over 100 µM in assay [2]; 20.3 µM in assay [3]; over 100 µM in assay [5]; over 100 µM in [6]. Moreover, the TGI in assay [7] is over 100 µM; in assay [8], 8.63 µM; in [9], over 50.9 µM.
